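Step 1: Grow cells in 96-well plates. Step 2: Expose to compound for 48 hours at 5 concentrations. Step 3: Interpolate endpoints linearly; if unreached, use highest concentration. The concentration for 50% growth inhibition is given as GI50.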 The source made the active and inactive calls. Cut-off read from the data, not from the text of the source: active = GI50 up to about 1.1 µM and inactive = higher.
Assays:
Experiment in all cases: growth of human tumour cells (NCI), 48 h
[1] = system: RXF 631
[2] = system: ACHN
[3] = system: SN12C
[4] = system: DMS-273
[5] = system: SR
[6] = system: HOP-92
[7] = system: HCT-15
[8] = system: A498
[9] = system: TK-10
[10] = system: HCT-116
[11] = system: KM12
[12] = system: OVCAR-5
[13] = system: UACC-62
[14] = system: U-251
[15] = system: SNB-78
[16] = system: NCI-H460
[17] = system: IGROV-1
[18] = system: NCI-H226
[19] = system: 786-0
[20] = system: DMS-114
[21] = system: KM-20L2
[22] = system: HL-60
[23] = system: RXF 393
[24] = system: XF498
[25] = system: SK-OV-3
[26] = system: K562
[27] = system: SK-MEL-5
[28] = system: SF-268
[29] = system: HOP-62
[30] = system: EKVX
[31] = system: LXFL 529
[32] = system: M14
[33] = system: UACC-257
[34] = system: SF-295
[35] = system: CAKI-1
[36] = system: DLD-1
[37] = system: OVCAR-8
[38] = system: SNB-75
[39] = system: A549
[40] = system: Malme-3M
[41] = system: CCRF-CEM
[42] = system: NCI-H23
[43] = system: HOP-18
[44] = system: SW-620
[45] = system: NCI-H522
[46] = system: RPMI-8226
[47] = system: SNB-19
[48] = system: OVCAR-4
[49] = system: HCC 2998
[50] = system: UO-31
[51] = system: SK-MEL-28
[52] = system: SK-MEL-2
[53] = system: SF-539
[54] = system: MOLT-4
[55] = system: HT-29
[56] = system: COLO 205
[57] = system: MDA-MB-435
[58] = system: DU-145
[59] = system: LOX IMVI
[60] = system: BT-549
[61] = system: OVCAR-3
[62] = system: M19-MEL
[63] = system: MDA-N
[64] = system: T47D
[65] = system: MCF7
[66] = system: PC-3
[67] = system: MDA-MB-231
[68] = system: NCI/ADR-RES
[69] = system: Hs-578T

Question: Which results are given for `O=C1[C@@H]2C(c3ccc(Br)cc3)=NO[C@@H]2C(=O)N1c1ccc(Cc2ccc(N3C(=O)[C@H]4C(c5ccc(Br)cc5)=NO[C@H]4C3=O)cc2)cc1`?
Answer: GI50 [1]: > 40 µM (inactive); GI50 [2]: > 40 µM (inactive); GI50 [3]: > 40 µM (inactive); GI50 [4]: > 40 µM (inactive); GI50 [5]: 19.1 µM (inactive); GI50 [6]: > 40 µM (inactive); GI50 [7]: > 40 µM; GI50 [8]: 0.0139 µM (active); GI50 [9]: 16.9 µM (inactive); GI50 [10]: > 40 µM (inactive)

Question: What does the source list for `Cc1ns/c(=N\C(=S)N(C)C)n1C`?
Answer: GI50 [11]: > 100 µM (inactive); GI50 [12]: > 100 µM (inactive); GI50 [13]: > 100 µM (inactive); GI50 [14]: > 100 µM (inactive); GI50 [15]: > 100 µM (inactive); GI50 [16]: > 100 µM (inactive); GI50 [17]: > 100 µM (inactive); GI50 [1]: > 100 µM (inactive); GI50 [18]: > 100 µM (inactive); GI50 [19]: > 100 µM (inactive); GI50 [20]: > 100 µM (inactive); GI50 [21]: > 100 µM (inactive); GI50 [22]: > 100 µM (inactive); GI50 [23]: > 100 µM (inactive); GI50 [24]: > 100 µM (inactive); GI50 [25]: > 100 µM (inactive); GI50 [26]: > 100 µM (inactive); GI50 [27]: > 100 µM (inactive); GI50 [28]: > 100 µM (inactive); GI50 [29]: > 100 µM (inactive); GI50 [30]: > 100 µM (inactive); GI50 [31]: > 100 µM (inactive); GI50 [2]: > 100 µM (inactive); GI50 [32]: > 100 µM (inactive); GI50 [3]: > 100 µM (inactive); GI50 [4]: > 100 µM (inactive); GI50 [33]: > 100 µM (inactive); GI50 [34]: > 100 µM (inactive); GI50 [5]: > 100 µM (inactive); GI50 [35]: > 100 µM (inactive); GI50 [36]: > 100 µM (inactive); GI50 [37]: > 100 µM (inactive); GI50 [38]: > 100 µM (inactive); GI50 [39]: > 100 µM (inactive); GI50 [40]: > 100 µM (inactive); GI50 [41]: > 100 µM (inactive); GI50 [42]: > 100 µM (inactive); GI50 [43]: > 100 µM (inactive); GI50 [6]: > 100 µM (inactive); GI50 [7]: > 100 µM; GI50 [44]: > 100 µM (inactive); GI50 [45]: > 100 µM (inactive); GI50 [46]: > 100 µM (inactive); GI50 [8]: > 100 µM (inactive); GI50 [47]: > 100 µM (inactive); GI50 [48]: > 100 µM (inactive); GI50 [49]: > 100 µM (inactive); GI50 [50]: > 100 µM (inactive); GI50 [9]: > 100 µM (inactive); GI50 [51]: > 100 µM (inactive); GI50 [10]: > 100 µM (inactive); GI50 [52]: > 100 µM (inactive); GI50 [53]: > 100 µM (inactive); GI50 [54]: > 100 µM (inactive); GI50 [55]: > 100 µM (inactive)

Question: Which GI50 [11] does the source give for `C=C(CN(C)C)C(=O)c1cc(C)ccc1C` here?
Answer: The GI50 was 18.6 µM (inactive).

Question: What about the GI50 [12] of the same molecule?
Answer: Its GI50 is 14.8 µM (inactive).

Question: And the GI50 [56]?
Answer: The GI50 was 1.58 µM (inactive).

Question: What about the GI50 [57] of the same molecule?
Answer: The GI50 was 8.45 µM (inactive).

Question: What about the GI50 [58] of the same molecule?
Answer: The GI50 was 14.4 µM (inactive).

Question: And the GI50 [13]?
Answer: Its GI50 is 10.5 µM (inactive).

Question: What about the GI50 [59] of the same molecule?
Answer: Its GI50 is 4.84 µM (inactive).

Question: What about the GI50 [14] of the same molecule?
Answer: The GI50 was 15.7 µM (inactive).

Question: And the GI50 [15]?
Answer: The GI50 was 26.9 µM (inactive).

Question: And the GI50 [60]?
Answer: Its GI50 is 10.2 µM (inactive).

Question: What about the GI50 [61] of the same molecule?
Answer: The GI50 was 5.33 µM (inactive).

Question: What about the GI50 [62] of the same molecule?
Answer: Its GI50 is 4.81 µM (inactive).

Question: What about the GI50 [16] of the same molecule?
Answer: The GI50 was 19.9 µM (inactive).

Question: What about the GI50 [17] of the same molecule?
Answer: The GI50 was 18 µM (inactive).

Question: And the GI50 [18]?
Answer: The GI50 was 13.2 µM (inactive).

Question: And the GI50 [19]?
Answer: Its GI50 is 2.96 µM (inactive).

Question: What about the GI50 [20] of the same molecule?
Answer: Its GI50 is 5.02 µM (inactive).

Question: And the GI50 [21]?
Answer: Its GI50 is 23 µM (inactive).

Question: What about the GI50 [22] of the same molecule?
Answer: The GI50 was 0.232 µM (active).

Question: And the GI50 [23]?
Answer: Its GI50 is 2.61 µM (inactive).

Question: What about the GI50 [24] of the same molecule?
Answer: The GI50 was 17.9 µM (inactive).

Question: What about the GI50 [25] of the same molecule?
Answer: Its GI50 is 18.4 µM (inactive).

Question: And the GI50 [26]?
Answer: The GI50 was 0.791 µM (active).

Question: What about the GI50 [27] of the same molecule?
Answer: The GI50 was 13.3 µM (inactive).

Question: What about the GI50 [28] of the same molecule?
Answer: The GI50 was 20.3 µM (inactive).

Question: What about the GI50 [29] of the same molecule?
Answer: Its GI50 is 18.7 µM (inactive).

Question: What about the GI50 [63] of the same molecule?
Answer: Its GI50 is 6.84 µM (inactive).

Question: What about the GI50 [30] of the same molecule?
Answer: Its GI50 is 26.2 µM (inactive).

Question: What about the GI50 [31] of the same molecule?
Answer: The GI50 was 1.62 µM (inactive).

Question: What about the GI50 [64] of the same molecule?
Answer: Its GI50 is 4.11 µM (inactive).

Question: And the GI50 [2]?
Answer: The GI50 was 3.54 µM (inactive).

Question: And the GI50 [32]?
Answer: The GI50 was 2.11 µM (inactive).

Question: What about the GI50 [3] of the same molecule?
Answer: Its GI50 is 15.6 µM (inactive).

Question: And the GI50 [65]?
Answer: Its GI50 is 2.96 µM (inactive).

Question: And the GI50 [4]?
Answer: Its GI50 is 11.7 µM (inactive).

Question: And the GI50 [33]?
Answer: The GI50 was 7.96 µM (inactive).

Question: What about the GI50 [34] of the same molecule?
Answer: Its GI50 is 16.7 µM (inactive).

Question: And the GI50 [5]?
Answer: The GI50 was 0.726 µM (active).

Question: What about the GI50 [66] of the same molecule?
Answer: Its GI50 is 14.1 µM (inactive).

Question: What about the GI50 [35] of the same molecule?
Answer: Its GI50 is 4.39 µM (inactive).

Question: What about the GI50 [36] of the same molecule?
Answer: Its GI50 is 2.28 µM (inactive).

Question: And the GI50 [37]?
Answer: Its GI50 is 20.7 µM (inactive).

Question: And the GI50 [38]?
Answer: Its GI50 is 17.2 µM (inactive).

Question: What about the GI50 [39] of the same molecule?
Answer: Its GI50 is 19.7 µM (inactive).

Question: And the GI50 [40]?
Answer: Its GI50 is 2.5 µM (inactive).

Question: What about the GI50 [41] of the same molecule?
Answer: The GI50 was 0.345 µM (active).

Question: And the GI50 [42]?
Answer: The GI50 was 11.4 µM (inactive).

Question: And the GI50 [43]?
Answer: Its GI50 is 4.13 µM (inactive).

Question: And the GI50 [6]?
Answer: Its GI50 is 2.81 µM (inactive).

Question: And the GI50 [7]?
Answer: Its GI50 is 4.13 µM.

Question: And the GI50 [44]?
Answer: The GI50 was 1.82 µM (inactive).

Question: What about the GI50 [45] of the same molecule?
Answer: The GI50 was 0.843 µM (active).

Question: And the GI50 [67]?
Answer: Its GI50 is 8.83 µM (inactive).

Question: And the GI50 [46]?
Answer: The GI50 was 1.42 µM (inactive).

Question: And the GI50 [8]?
Answer: The GI50 was 23.6 µM (inactive).

Question: And the GI50 [47]?
Answer: Its GI50 is 19.9 µM (inactive).

Question: And the GI50 [48]?
Answer: The GI50 was 9.75 µM (inactive).

Question: And the GI50 [49]?
Answer: Its GI50 is 15.8 µM (inactive).

Question: What about the GI50 [50] of the same molecule?
Answer: The GI50 was 6.87 µM (inactive).

Question: And the GI50 [9]?
Answer: Its GI50 is 8.95 µM (inactive).

Question: And the GI50 [51]?
Answer: The GI50 was 9.1 µM (inactive).

Question: What about the GI50 [10] of the same molecule?
Answer: The GI50 was 4.7 µM (inactive).

Question: What about the GI50 [52] of the same molecule?
Answer: Its GI50 is 16.9 µM (inactive).

Question: What about the GI50 [53] of the same molecule?
Answer: Its GI50 is 8.91 µM (inactive).

Question: What about the GI50 [68] of the same molecule?
Answer: The GI50 was 18.3 µM (inactive).

Question: And the GI50 [54]?
Answer: Its GI50 is 0.371 µM (active).

Question: And the GI50 [69]?
Answer: The GI50 was 28.7 µM (inactive).

Question: And the GI50 [55]?
Answer: The GI50 was 11 µM (inactive).
